Reference: US11202792B2, “CD99 inhibitors and their uses” (GEORGETOWN UNIVERSITY, priority 2016, dated 2021)

What was measured:
[1] = test system: TC-71 and RD-ES cell lines; test: Dose-dependent cytotoxicity assay in ES cell lines; type: cell-based, human; details: dose-response at 1, 3, 10 and 30 μmol/L in TC-71 and RD-ES
Description: The plate was installed into the RTCA system, and the electrical impedance (represented as cell index) was measured every 10 min.
The primary screen was based on a direct binding assay using surface plasmon resonance (SPR) technology with purified extracellular domain of CD99 (CD99-ECD) protein that was immobilized on a neutravidin-coated sensor chip. […] A negative control protein was used in order to eliminate non-specific binders. […] Dose-response studies were performed with 2 compounds at 1, 3, 10 and 30 μmol/L concentration in ES cell lines.

[2] = target: T1, recombinant human full-length CD99 (Homo sapiens, UniProt P14209); test: SPR binding kinetics, recombinant human full-length CD99 (Biacore T200); details: full-length CD99 produced in HEK293 cells, immobilized by amine coupling
T1 construct: Purified recombinant human full-length CD99 produced in HEK293 cells was purchased from Origene; purchased Origene #TP304056; host or cells: HEK293
T1 sequence (P14209 23-185): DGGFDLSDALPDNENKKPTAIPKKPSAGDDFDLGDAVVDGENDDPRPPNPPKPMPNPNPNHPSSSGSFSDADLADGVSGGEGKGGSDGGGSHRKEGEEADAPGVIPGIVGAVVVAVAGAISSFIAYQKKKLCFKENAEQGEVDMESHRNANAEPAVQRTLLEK
Description: The initial binding screening of the NCI/DTP chemical libraries was performed on a Biacore T200 instrument at room temperature using a neutravidin-coated CM5 chip (GE Healthcare Bio-Sciences) coupled with biotinylated CD99-ECD on one flow cell at levels of ˜3,000 response units (RU). A negative control protein, Ly6k was immobilized on another flow cell of the same chip (˜11,000 RU), and the first flow cell was left empty for reference subtraction due to nonspecific binding. Analytes were diluted in HBS—P buffer [10 mmol/L HEPES, pH 7.4, 150 mmol/L NaCl, % 0.05 (v/v) surfactant P20], and were injected individually over all flow cells. The running buffer contained appropriate concentrations of DMSO in HBS—P to match the DMSO level of the samples. Kinetic studies for antibody- or compound-CD99 interactions were performed in a Biacore T200 instrument. Purified recombinant human full-length CD99 produced in HEK293 cells was purchased from Origene (Rockville, Md.) (#TP304056). The recombinant human full-length CD99 was immobilized on a CM5 sensor chip by the amine-coupling method in sodium acetate buffer, pH 4.0 (˜10,000 RU). The first flow cell was left empty for background signal subtraction. Kinetic characterization of the interactions was done by injecting increasing concentrations of analytes as indicated over CD99-captured and control surface. KD (equilibrium dissociation constant) values were obtained using BiaEvaluation software (version 1.0) (Biacore) (GE Healthcare). All kinetic experiments were conducted in HBS—P buffer, which contained 1% (v/v) DMSO in case of compounds.

[3] = target: T2, CD99-ECD (extracellular domain of human CD99) (Homo sapiens, UniProt P14209); test: SPR binding, CD99-ECD purified from bacteria
T2 construct: the extracellular domain (Asp23-Asp122) of human CD99; made in house; host or cells: Escherichia coli BL21 (DE3)
T2 sequence (P14209 23-122): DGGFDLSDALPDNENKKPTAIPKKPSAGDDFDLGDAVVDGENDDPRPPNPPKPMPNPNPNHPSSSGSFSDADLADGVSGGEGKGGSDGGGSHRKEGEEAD
From the text: The Champion™ pET104 BioEase™ Gateway® Expression System (Invitrogen (Carlsbad, Calif.)) was used to produce CD99-ECD fused with a N-terminal biotin tag, as directed by the manufacturer's instructions. Briefly, the DNA sequence encoding the extracellular domain (Asp23-Asp122) of human CD99 was amplified by PCR using pcDNA3.1 expression vector (Life Technologies (Carlsbad, Calif.)) carrying the full-length human CD99 cDNA transcript variant 1 as template. The primers were designed to include an additional C-terminal 6×His tag in the protein. The PCR product was gel purified with a QIAquick gel extraction kit (Qiagen (Hilden, Germany)) and subcloned into the pDONR 221 entry vector. The entry clone was then subjected to a recombination reaction with pET104.1-DEST destination vector, an expression vector with a N-terminal BioEase tag. The presence of an insert was confirmed by DNA sequencing.
CD99-ECD was expressed in Escherichia coli BL21 (DE3) cells. A saturated overnight culture of cells was diluted by 20-fold into fresh LB medium containing 100 μg/mL ampicillin. To induce the expression of CD99-ECD, cells were grown to OD600nm 0.5-0.7 at 37° C. and induced by the addition of isopropyl-β-D-thiogalactopyranoside to a final concentration of 1 mmol/L. The cultures were grown for an additional 3 h at 37° C. Cells were harvested by centrifugation at 8,000×g for 15 min, resuspended in 50 mmol/L sodium phosphate buffer, pH 7.4, containing 500 mmol/L NaCl, 10 mmol/L imidazole and 1 Complete EDTA-free protease inhibitor tablet/50 mL (Roche Diagnostics), and lysed by sonication. […] Protein fractions were finally eluted with a linear gradient of imidazole (10 to 1000 mmol/L) in the same buffer. The purity of the protein was assessed by SDS-PAGE followed by Coomassie staining. The eluted fractions were stored at −80° C. for further use. […]

[4] = test system: TC-71 ES cells; test: Cell viability IC50, TC-71; type: cell-based, human; details: TC-71 cells, WST-1, 48 h (FIG. 10B)
[5] = test system: A4573 ES cells; test: Cell viability IC50 (WST-1), A4573; type: cell-based, human; details: WST-1, 48 h (FIG. 10B)
[6] = test system: TC-71, 6647 and RDES ES cells; test: Soft agar colony formation assay, ES cells; type: cell-based, human; details: dose-dependent
Description: Anchorage-independent growth was determined in 0.33% agarose (Sea-Plaque Agarose, Lonza) with a 0.5% agarose underlay. […] Colonies were counted after 7-12 days.

[7] = test system: TC-CD99-shRNA #1 cells; test: Soft agar colony formation assay, CD99 knockdown cells; type: cell-based, human

Row | Kd [2] [µM] | Kd [3] [µM] | Molecule | IC50 [1] [µM] | IC50 [4] [µM] | IC50 [5] [µM] | colony formation (anchorage-independent growth) [6] | colony formation in CD99 knockdown cells [7]
1 |  |  | C=C(Cl)C(Cl)(CBr)CCC(Br)C(C)(C)Cl (stereo not shown) [NSC662825] | 9 |  |  |  | 
2 | 3.7 | 7.6 | clofarabine-5′-triphosphate |  | 0.17 | 0.46 | inhibited | diminished
